According to patent publication US6818391B2, “Glutamate transporters” (The Regents of the University of California, priority 2000, dated 2004):
Several values for one entry are separate records, joined by “and”; a condition that tells them apart may be missing. Identical values can stand only once.

Molecular target: T1, DNPI/VGLUT2 (Rattus norvegicus, UniProt Q9JI12)
T1 construct: To reconstruct the full open reading frame, the missing segment was amplified from rat brain cDNA by PCR; expressed in transfected cells; light membranes prepared from them
T1 sequence (Q9JI12 1-582): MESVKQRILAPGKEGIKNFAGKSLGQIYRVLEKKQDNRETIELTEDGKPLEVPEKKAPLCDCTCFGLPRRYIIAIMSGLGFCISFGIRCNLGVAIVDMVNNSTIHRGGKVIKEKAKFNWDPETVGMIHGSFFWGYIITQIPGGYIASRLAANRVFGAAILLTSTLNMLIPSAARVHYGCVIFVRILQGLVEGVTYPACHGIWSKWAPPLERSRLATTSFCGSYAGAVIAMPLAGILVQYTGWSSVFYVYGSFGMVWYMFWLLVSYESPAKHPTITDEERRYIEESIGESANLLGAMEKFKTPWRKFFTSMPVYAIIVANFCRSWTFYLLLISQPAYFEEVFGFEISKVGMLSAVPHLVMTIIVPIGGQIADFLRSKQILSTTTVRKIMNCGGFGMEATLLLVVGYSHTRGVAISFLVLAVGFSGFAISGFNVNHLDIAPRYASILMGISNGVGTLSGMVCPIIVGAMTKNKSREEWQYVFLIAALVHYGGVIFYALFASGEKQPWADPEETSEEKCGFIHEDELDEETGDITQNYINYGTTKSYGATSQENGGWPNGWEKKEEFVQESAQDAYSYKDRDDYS
Assay: 3H-L-glutamate uptake by membranes from PC12 cells expressing DNPI/VGLUT2
Assay type: biochemical
Experimental: PC12 cells were grown in Dulbecco's modified Eagle's medium containing 10% equine serum, 5% calf serum and transfected by electroporation with the rat DNPI/VGLUT2 cDNA subcloned in the pcDNA3 vector containing an […] (Krantz et al. (2000) J. Cell Biol. 149). Stable transformants were selected for resistance to the neomycin analog G418 (500 μg/ml) and screened by immunofluorescence with the DNPI antibody, resulting in the identification of two independent clones with more than 80% of the cells expressing DNPI.
For membrane preparation, untransfected and DNPI-expressing PC12 cells were grown on 15 cm plates, washed with calcium- and magnesium-free PBS, collected in 0.32 M sucrose/10 mM HEPES-KOH, pH 7.4 (SH buffer) containing protease inhibitors (2 μg/ml leupeptin, 1 μg/ml pepstatin, 1 μg/ml E64, 0.2 mM diisopropylfluorphosphate, 2 μg/ml aprotinin, and 1.25 mM MgEGTA), homogenized using a ball bearing device and the homogenate sedimented at 1000 g for 5 min to remove nuclei and debris. The supernatant was then sedimented at 27,000 g for 35 min to remove heavier membranes. The remaining light membranes including small synaptic-like microvesicles were then sedimented at 210,000 g for 1 hour. The pellet was resuspended in SH buffer with protease inhibitors at ˜10 mg protein/ml.
To initiate the transport reaction, 20 μl membranes (˜200 μg protein) were added to 180 μl SH buffer containing 4 mM KCl, 4 mM MgSO4, […], and 100 μM ^3H-L-glutamate, with other additions noted in the text and figure legends. The reaction mixture was incubated at 29° C. for varying intervals, uptake was terminated by rapid filtration through Supor-200 membranes (Gelman) and the filters were washed rapidly four times with 1.5 ml cold 0.155 M potassium tartrate/10 mm HEPES-KOH, pH 7.4 before measuring the bound radioactivity by scintillation counting in 3 ml Cytoscint (ICN). Uptake specifically mediated by DNPI/VGLUT2 was determined by subtracting the background uptake of untransfected cell membranes from the uptake by transfected cell membranes. To examine the chloride dependence of transport, varying proportions of 0.14 M K gluconate and 0.14 M KCl were mixed in the standard reaction buffer (without sucrose) to vary the chloride concentration and maintain constant osmolarity. The ionophores nigericin and valinomycin used in FIG. 13E were prepared as 200× stock solutions in ethanol. The final ethanol concentration in the reaction mixture was 1%.

Structure (SMILES)	inhibition of DNPI-mediated 3H-L-glutamate uptake (10 mM, uptake at 5 minutes)	Km (initial rate at 1 minute, 0.03-10 mM L-glutamate, Lineweaver-Burke)	specific 3H-L-glutamate uptake by DNPI at high chloride (140 mM chloride)	chloride concentration for maximal 3H-L-glutamate uptake by DNPI (uptake at 5 minutes)
N[C@@H](CCC(=O)O)C(=O)O [L-Glutamate]	markedly inhibits	4.7 mM and ~5 mM		
Cl [chloride]			little or no specific uptake is detectable	2 to 10 mM and ~2 mM
